The target of the test is PAR1 (Homo sapiens (Human), UniProt P25116). Nature of the test: Par-1 FLIPR assay (calcium, HEK 293 cells, PAR1 activating peptide). Format: cell-based. Conditions: PAR1 selective receptor-activating peptide at 80% activation. The protocol:
HEK 293 Cells were grown in media containing DMEM, 10% FBS pen/strep/L-Glutamine and non-essential amino acids. The cells were plated in 384-well PDL coated plates at 12000 cells/well and incubated overnight at 37° C./5% CO2. Media was then removed from the cells, which were then incubated with buffer (Hank's containing HEPES and Chaps) containing FLIPR calcium-5 dye, made with buffer containing probenecid, for 60 minutes at 37° C. Varying concentrations of compound in a final concentration of 5% DMSO were then added to the cells and incubated at 25° C. for 30 minutes. […] The FLIPR reads at an excitation wavelength of 480 nm and an emission wavelength of 535 nm, and performs 60 scans over a 1-2 min reading time. The data were analyzed by taking the peak signal over a portion of the range of the 60 scans and dividing this signal by the minimum signal for that same range.

Usually IC50 stands for the midpoint of a concentration-inhibition curve.

Chain of PAR1 (P25116 22-425): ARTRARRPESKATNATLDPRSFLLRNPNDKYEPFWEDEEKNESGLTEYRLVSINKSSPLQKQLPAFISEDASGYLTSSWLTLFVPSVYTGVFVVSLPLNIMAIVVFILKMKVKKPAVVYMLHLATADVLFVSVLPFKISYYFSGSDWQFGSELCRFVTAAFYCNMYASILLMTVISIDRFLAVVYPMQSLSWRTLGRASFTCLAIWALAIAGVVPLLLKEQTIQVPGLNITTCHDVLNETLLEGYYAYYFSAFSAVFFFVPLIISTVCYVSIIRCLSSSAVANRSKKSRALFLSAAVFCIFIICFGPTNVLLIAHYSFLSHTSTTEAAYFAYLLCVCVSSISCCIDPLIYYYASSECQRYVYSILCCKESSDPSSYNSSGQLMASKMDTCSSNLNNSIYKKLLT

On to `C[C@H]1OC(=O)[C@]2(NC(=O)c3ccc(Cl)nc3)CC(F)(F)[C@@H](C)[C@H](/C=C/c3ccc(-c4ccccc4C#N)cn3)[C@H]12` [Example 59], for which the concentration for half-maximal inhibition (IC50) amounted to 3 nM.
The figure for `C[C@H]1OC(=O)[C@]2(C(O)c3ncco3)CC(F)(F)[C@@H](C)[C@H](/C=C/c3ccc(-c4ccccc4C#N)cn3)[C@H]12` (single isomer, unassigned) [Example 23b] is 1.2 nM; for `C[C@H]1OC(=O)[C@]2(Br)CC(F)(F)[C@@H](C)[C@H](/C=C/c3ccc(-c4ccccc4C#N)cn3)[C@H]12` [Example 71] it is 4.8 nM.
The figure for `C[C@H]1OC(=O)[C@]2(C(=O)O)CC(F)(F)[C@@H](C)[C@H](/C=C/c3ccc(-c4cccc(F)c4)cn3)[C@H]12` [Example 12] is 10.9 nM; for `C[C@H]1OC(=O)[C@]2(NC(=O)c3nccs3)CC(F)(F)[C@@H](C)[C@H](/C=C/c3ccc(-c4ccccc4C#N)cn3)[C@H]12` [Example 57] it is 2.8 nM; for `C[C@H]1OC(=O)[C@]2(C(O)c3nccs3)CC(F)(F)[C@@H](C)[C@H](/C=C/c3ccc(-c4ccccc4C#N)cn3)[C@H]12` (stereo partly drawn) [Example 21b] it is 1.2 nM.
For `C[C@H]1OC(=O)[C@]2(NC(=O)c3cccc(F)c3)CC(F)(F)[C@@H](C)[C@H](/C=C/c3ccc(-c4ccccc4C#N)cn3)[C@H]12` [Example 58] the value was 3 nM.
Turning to `CC1[C@H](/C=C/c2ccc(-c3ccccc3C#N)cn2)C2[C@@H](C)OC(=O)[C@]2(NCc2ncco2)CC1(F)F` (stereo partly drawn) [Example 41], the IC50 turned out to be 6.5 nM.
Consider `CC1[C@H](/C=C/c2ccc(-c3ccccc3C#N)cn2)C2[C@@H](C)OC(=O)[C@]2(NCc2nccs2)CC1(F)F` (stereo partly drawn) [Example 39], for which the half-inhibitory concentration (IC50) was determined as 2.2 nM.
For `C[C@H]1OC(=O)C2CC(F)(F)[C@@H](C)[C@H](/C=C/c3ccc(-c4ccccc4OC(F)(F)F)cn3)C21` (stereo partly drawn) [Example 5] the value was 4.7 nM; for `C[C@H]1OC(=O)[C@]2(NCc3nccn3C)CC(F)(F)[C@@H](C)[C@H](/C=C/c3ccc(-c4ccccc4C#N)cn3)[C@H]12` [Example 48], 3 nM.
The figure for `C[C@H]1OC(=O)[C@]2(C(=O)NC3CCC3)CC(F)(F)[C@@H](C)[C@H](/C=C/c3ccc(-c4ccccc4C#N)cn3)[C@H]12` [Example 18] is 3.3 nM.
The figure for `C[C@H]1OC(=O)[C@]2(NCC(C)(C)C)CC(F)(F)[C@@H](C)[C@H](/C=C/c3ccc(-c4ccccc4C#N)cn3)[C@H]12` [Example 51] is 10.2 nM.
On to `Cc1oncc1C(=O)N[C@@]12CC(F)(F)[C@@H](C)[C@H](/C=C/c3ccc(-c4ccccc4C#N)cn3)[C@@H]1[C@@H](C)OC2=O` [Example 61], for which the IC50 is 33.3 nM.
`C[C@H]1OC(=O)[C@]2(N)CC(F)(F)[C@@H](C)[C@H](/C=C/c3ccc(-c4ccccc4C#N)cn3)[C@H]12` [Example 7]: the IC50 amounted to 7.2 nM.
As to `Cc1cc(C(=O)N[C@@]23CC(F)(F)[C@@H](C)[C@H](/C=C/c4ccc(-c5ccccc5C#N)cn4)[C@@H]2[C@@H](C)OC3=O)no1` [Example 60], the IC50 came out at 3.4 nM.
The figure for `C[C@H]1OC(=O)C2CC(F)(F)[C@@H](C)[C@H](/C=C/c3ccc(-c4ccccc4Cl)cn3)C21` (stereo partly drawn) [Example 4] is 2.7 nM; for `C[C@H]1OC(=O)[C@]2(NC(=O)C3CC3)CC(F)(F)[C@@H](C)[C@H](/C=C/c3ccc(-c4ccccc4C#N)cn3)[C@H]12` [Example 66] it is 3.5 nM; for `C[C@H]1OC(=O)[C@]2(NCc3cnccn3)CC(F)(F)[C@@H](C)[C@H](/C=C/c3ccc(-c4ccccc4C#N)cn3)[C@H]12` [Example 45] it is 4.4 nM.
The figure for `CC1[C@H](/C=C/c2ccc(-c3ccccc3C#N)cn2)C2[C@@H](C)OC(=O)[C@]2(C(O)c2nccs2)CC1(F)F` (stereo partly drawn) [Example 21a] is 2.5 nM; for `C[C@H]1OC(=O)[C@]2(NCc3ccccn3)CC(F)(F)[C@@H](C)[C@H](/C=C/c3ccc(-c4ccccc4C#N)cn3)[C@H]12` [Example 46] it is 3.1 nM.
For `CC1[C@H](/C=C/c2ccc(-c3ccccc3C#N)cn2)C2[C@@H](C)OC(=O)[C@]2(NCc2cccnc2)CC1(F)F` (stereo partly drawn) [Example 38] the value was 4.7 nM; for `C[C@@H]1[C@H](/C=C/c2ccc(-c3ccccc3C#N)cn2)[C@H]2[C@@H](C)OC(=O)[C@]2(NC(=O)c2ccc(F)cc2)CC1(F)F` [Example 62], 1.7 nM; for `C[C@H]1OC(=O)[C@]2(NCc3cncnc3)CC(F)(F)[C@@H](C)[C@H](/C=C/c3ccc(-c4ccccc4C#N)cn3)[C@H]12` [Example 47], 5.7 nM.
For the molecule `C[C@H]1OC(=O)[C@]2(C(O)c3cscn3)CC(F)(F)[C@@H](C)[C@H](/C=C/c3ccc(-c4ccccc4C#N)cn3)[C@H]12` (stereo partly drawn) [Example 20b], the IC50 turned out to be 1.2 nM.
For `CC1[C@H](/C=C/c2ccc(-c3ccccc3C#N)cn2)C2[C@@H](C)OC(=O)[C@]2(C(O)c2cscn2)CC1(F)F` (stereo partly drawn) [Example 20a] the value was 0.9 nM.
On to `C[C@H]1OC(=O)[C@]2(N)CC(F)(F)[C@@H](C)[C@H](/C=C/c3ccc(-c4ccccc4-c4nnn[nH]4)cn3)[C@H]12` [Example 74], for which the IC50 is 872 nM.
For `C[C@H]1OC(=O)[C@]2(C(O)c3ncco3)CC(F)(F)[C@@H](C)[C@H](/C=C/c3ccc(-c4ccccc4C#N)cn3)[C@H]12` (single isomer, unassigned) [Example 23a] the value was 3.1 nM.
The figure for `C[C@H]1OC(=O)[C@]2(NCc3cncs3)CC(F)(F)[C@@H](C)[C@H](/C=C/c3ccc(-c4ccccc4C#N)cn3)[C@H]12` [Example 43] is 1.3 nM; for `C[C@H]1OC(=O)[C@]2(N(C)C)CC(F)(F)[C@@H](C)[C@H](/C=C/c3ccc(-c4ccccc4C#N)cn3)[C@H]12` [Example 37] it is 5.3 nM.
As to `CC(=O)N[C@@]12CC(F)(F)[C@@H](C)[C@H](/C=C/c3ccc(-c4ccccc4C#N)cn3)[C@@H]1[C@@H](C)OC2=O` [Example 53], the 50% inhibitory concentration (IC50) is 26 nM.
The figure for `C[C@H]1OC(=O)[C@]2(C(O)c3cocn3)CC(F)(F)[C@@H](C)[C@H](/C=C/c3ccc(-c4ccccc4C#N)cn3)[C@H]12` (stereo partly drawn) [Example 22b] is 2.2 nM.
For `C[C@H]1OC(=O)[C@]2(CO)CC(F)(F)[C@@H](C)[C@H](/C=C/c3ccc(-c4ccccc4C#N)cn3)[C@H]12` [Example 15] the value was 2.7 nM.
The figure for `C[C@H]1OC(=O)[C@]2(S(C)(=O)=O)CC(F)(F)[C@@H](C)[C@H](/C=C/c3ccc(-c4ccccc4C#N)cn3)[C@H]12` [Example 70] is 15.6 nM; for `C[C@H]1OC(=O)[C@]2(CN)CC(F)(F)[C@@H](C)[C@H](/C=C/c3ccc(-c4ccccc4C#N)cn3)[C@H]12` [Example 76] it is 2.3 nM.
Regarding `C[C@H]1OC(=O)[C@]2(O)CC(F)(F)[C@@H](C)[C@H](/C=C/c3ccc(-c4ccccc4OC(F)(F)F)cn3)[C@H]12` [Example 9], the half-maximal inhibitory concentration (IC50) stood at 4.5 nM.
For `Cc1nnc(C[C@@]23CC(F)(F)[C@@H](C)[C@H](/C=C/c4ccc(-c5ccccc5Cl)cn4)[C@@H]2[C@@H](C)OC3=O)o1` [Example 28] the value was 0.9 nM; for `CC1[C@H](/C=C/c2ccc(-c3ccccc3C#N)cn2)C2[C@@H](C)OC(=O)[C@]2(NCc2ccncc2)CC1(F)F` (stereo partly drawn) [Example 40], 3.9 nM.
For `C[C@H]1OC(=O)[C@]2(Cc3nnn(C)n3)CC(F)(F)[C@@H](C)[C@H](/C=C/c3ccc(-c4ccccc4Cl)cn3)C12` (stereo partly drawn) [Example 29a] the value was 2.1 nM.

The record behind these values is patent publication US9340530B2, “Preparation and use of bicyclic himbacine derivatives as PAR-1 receptor antagonists” (Merck, Sharp & Dohme Corp., priority 2012, dated 2016).
